Assay results as given in PMC10940605, “Design, synthesis and in vitro anticancer activity of some new lomefloxacin derivatives” (Scientific Reports, 2024).

Key:
[1] = system: SMMC7721 cancer cell lines; design: method as in PMID 22301863; conditions: SMMC7721, Fig. 2; cited from earlier work
MCF-7 cancer cell lines = system: MCF-7 cancer cell lines; design: method as in PMID 22301863; conditions: MCF-7, Fig. 2; cited from earlier work
HCT-8 cancer cell lines = system: HCT-8 cancer cell lines; design: method as in PMID 22301863; conditions: HCT-8, Fig. 2; cited from earlier work
Topoisomerase II = target: Topoisomerase II; design: method as in PMID 10051540, PMID 8824299, PMID 9651360; conditions: Topoisomerase II catalytic inhibitor, Fig. 1; cited from earlier work
BT-549 = test: NCI-60 SRB screen; assay type: cell-based; conditions: Homo sapiens; BT-549, 10^–5 Molar; read-out: Percent growth inhibition
Description: (§1) All newly synthesized compounds were selected and screened for anticancer activity against 60 human cancer cell lines representing 9 types of tumors including leukemia, melanoma, lung, colon, CNS, ovarian, renal, prostate, and breast cancers at the National Cancer Institute (NCI), Bethesda, USA. Screening was performed utilizing a single dose (10^−5 M concentration) and cells were incubated for 48 h. The end point was determined using sulforhodamine B (SRB) dye.
(§2) In this study, all the 16 newly synthesized compounds were submitted to the National Cancer Institute (USA) for anticancer evaluation and were selected and evaluated using 60 different human tumor cell lines representing lung, colon, CNS, ovarian, renal, prostate, breast cancers as well as leukemia and melanoma. A single dose (10^–5 Molar) was used for the initial screening for evaluation of anticancer activity. The 60 human cancer cell lines were provided by the national cancer institute biomedical research campus in Frederick, Maryland.
(§3) 60 different human cancer cell lines were utilized to screen the newly synthesized compounds for anticancer activity according to the previously reported standard procedure[24]–[26] as follows: • 96 well microtiter plates were used to inoculate the cells at […] ranging from 4000–5000 cells/well depending on the replication time of individual cell lines. Roswell Park Memorial Institute culture medium (RPMI 1640 medium) containing 2 mM L-glutamine and fetal bovine serum was used to grow the cells at 37 °C, 5% CO2, 95% air and 100% relative humidity for 24 h. • Fixation of cells in two plates of each cell line in situ was done using trichloroacetic acid (TCA). This represented the measurement of cell population at the time of drug addition (Tz). • Dimethyl sulfoxide (DMSO) was used to dissolve the synthesized compounds at 400-fold the desired final maximum concentration and frozen prior to use. This frozen concentrate was melted and diluted to twice the final concentration with complete medium containing 50 µg/mL gentamycin at time of drug addition. • The final compound concentration was obtained by adding 100 µL of the synthesized compounds to the appropriate microtiter wells already containing 100 µL followed by incubation of the plates at 37 °C, 5% CO2, 95% air and 100% relative humidity for 48 h. • Fixation of the cells was achieved by gentle addition of 50 µL of cold 50% (w/v) TCA followed by incubation for 60 min at 4 °C. The supernatant was then discarded and the plates are washed 5 times with tap water and air dried. • Sulphorhodamine B (SRB) solution (100 µL) at 0.4% (w/v) in 1% acetic acid was added to each plate followed by incubation for 10 min at room temperature. The unbound dye was then removed by washing five times with 1% acetic acid and plates were air dried. • Dissolution of the bound stain was done using […] trizma base and the absorbance was read at […] wavelength using an automated plate reader. • The percentage growth inhibition was calculated as follows: Ti-Tz/C-Tz×100forconcentrationswhichTi≥Tz Ti-Tz/Tz×100forconcentrationswhichTi<Tz • Time zero (Tz) • Control growth (C) • Test growth in the presence of drug (Ti)

CAKI-1 = test: NCI-60 SRB screen; assay type: cell-based; conditions: Homo sapiens; CAKI-1, 10^–5 Molar; read-out: Percent growth inhibition
Description: as §1, §2, §3

HS 578T = test: NCI-60 SRB screen; assay type: cell-based; conditions: Homo sapiens, 10^–5 Molar, read-out: Percent growth inhibition
Description: as §1, §2, §3

LOX IMVI = test: NCI-60 SRB screen; assay type: cell-based; conditions: Homo sapiens, 10^–5 Molar, read-out: Percent growth inhibition
Description: as §1, §2, §3

MCF7 = test: NCI-60 SRB screen; assay type: cell-based; conditions: Homo sapiens; MCF7, 10^–5 Molar; read-out: Percent growth inhibition
Description: as §1, §2, §3

MDA-MB-231/ATCC = test: NCI-60 SRB screen; assay type: cell-based; conditions: Homo sapiens, 10^–5 Molar, read-out: Percent growth inhibition
Description: as §1, §2, §3

MDA-MB-435 = test: NCI-60 SRB screen; assay type: cell-based; conditions: Homo sapiens; MDA-MB-435, 10^–5 Molar; read-out: Percent growth inhibition
Description: as §1, §2, §3

NCI-H522 = test: NCI-60 SRB screen; assay type: cell-based; conditions: Homo sapiens; NCI-H522, 10^–5 Molar; read-out: Percent growth inhibition
Description: as §1, §2, §3

NCI/ADR-RES = test: NCI-60 SRB screen; assay type: cell-based; conditions: Homo sapiens, 10^–5 Molar, read-out: Percent growth inhibition
Description: as §1, §2, §3

OVCAR-4 = test: NCI-60 SRB screen; assay type: cell-based; conditions: Homo sapiens; OVCAR-4, 10^–5 Molar; read-out: Percent growth inhibition
Description: as §1, §2, §3

PC-3 = test: NCI-60 SRB screen; assay type: cell-based; conditions: Homo sapiens; PC-3, 10^–5 Molar; read-out: Percent growth inhibition
Description: as §1, §2, §3

SF-539 = test: NCI-60 SRB screen; assay type: cell-based; conditions: Homo sapiens; SF-539, 10^–5 Molar; read-out: Percent growth inhibition
Description: as §1, §2, §3

SK-MEL-2 = test: NCI-60 SRB screen; assay type: cell-based; conditions: Homo sapiens; SK-MEL-2, 10^–5 Molar; read-out: Percent growth inhibition
Description: as §1, §2, §3

SNB-19 = test: NCI-60 SRB screen; assay type: cell-based; conditions: Homo sapiens; SNB-19, 10^–5 Molar; read-out: Percent growth inhibition
Description: as §1, §2, §3

SNB-75 = test: NCI-60 SRB screen; assay type: cell-based; conditions: Homo sapiens; SNB-75, 10^–5 Molar; read-out: Percent growth inhibition
Description: as §1, §2, §3

SW-620 = test: NCI-60 SRB screen; assay type: cell-based; conditions: Homo sapiens; SW-620, 10^–5 Molar; read-out: Percent growth inhibition
Description: as §1, §2, §3

UACC-62 = test: NCI-60 SRB screen; assay type: cell-based; conditions: Homo sapiens; UACC-62, 10^–5 Molar; read-out: Percent growth inhibition
Description: as §1, §2, §3

UO-31 = test: NCI-60 SRB screen; assay type: cell-based; conditions: Homo sapiens; UO-31, 10^–5 Molar; read-out: Percent growth inhibition
Description: as §1, §2, §3

[2] = system: 60 human cancer cell lines; test: NCI-60 SRB screen, whole panel; assay type: cell-based; conditions: Homo sapiens, 48 h; One Dose Mean Graph, Conc 1.00E-5 Molar; read-out: Mean Growth Percent
leukemia SR cells [3] = test: Cell cycle analysis, PI flow cytometry; assay type: cell-based, human; design: increase of cells at pre-G1 phase vs control: concentration or dose not given beside the values
Description: The cells were washed twice using Ice-cold phosphate buffer saline (PBS). • Centrifugation was used to collect the cells, then the cells were fixed in 70% (v/v) ethanol, washed with PBS and re-suspended with 0.10 mg/mL RNase. • After that, cells were stained with […] propidium iodide (PI) and evaluated by flow cytometry using FACSCalibur (Becton Dickinson).

topoisomerase IIα = target: T1, topoisomerase IIα (Homo sapiens, UniProt P11388); test: Topoisomerase ELISA kit inhibitory assay; assay type: biochemical; conditions: four concentrations
T1 construct: purchased MBS2885049
T1 sequence (P11388 whole entry): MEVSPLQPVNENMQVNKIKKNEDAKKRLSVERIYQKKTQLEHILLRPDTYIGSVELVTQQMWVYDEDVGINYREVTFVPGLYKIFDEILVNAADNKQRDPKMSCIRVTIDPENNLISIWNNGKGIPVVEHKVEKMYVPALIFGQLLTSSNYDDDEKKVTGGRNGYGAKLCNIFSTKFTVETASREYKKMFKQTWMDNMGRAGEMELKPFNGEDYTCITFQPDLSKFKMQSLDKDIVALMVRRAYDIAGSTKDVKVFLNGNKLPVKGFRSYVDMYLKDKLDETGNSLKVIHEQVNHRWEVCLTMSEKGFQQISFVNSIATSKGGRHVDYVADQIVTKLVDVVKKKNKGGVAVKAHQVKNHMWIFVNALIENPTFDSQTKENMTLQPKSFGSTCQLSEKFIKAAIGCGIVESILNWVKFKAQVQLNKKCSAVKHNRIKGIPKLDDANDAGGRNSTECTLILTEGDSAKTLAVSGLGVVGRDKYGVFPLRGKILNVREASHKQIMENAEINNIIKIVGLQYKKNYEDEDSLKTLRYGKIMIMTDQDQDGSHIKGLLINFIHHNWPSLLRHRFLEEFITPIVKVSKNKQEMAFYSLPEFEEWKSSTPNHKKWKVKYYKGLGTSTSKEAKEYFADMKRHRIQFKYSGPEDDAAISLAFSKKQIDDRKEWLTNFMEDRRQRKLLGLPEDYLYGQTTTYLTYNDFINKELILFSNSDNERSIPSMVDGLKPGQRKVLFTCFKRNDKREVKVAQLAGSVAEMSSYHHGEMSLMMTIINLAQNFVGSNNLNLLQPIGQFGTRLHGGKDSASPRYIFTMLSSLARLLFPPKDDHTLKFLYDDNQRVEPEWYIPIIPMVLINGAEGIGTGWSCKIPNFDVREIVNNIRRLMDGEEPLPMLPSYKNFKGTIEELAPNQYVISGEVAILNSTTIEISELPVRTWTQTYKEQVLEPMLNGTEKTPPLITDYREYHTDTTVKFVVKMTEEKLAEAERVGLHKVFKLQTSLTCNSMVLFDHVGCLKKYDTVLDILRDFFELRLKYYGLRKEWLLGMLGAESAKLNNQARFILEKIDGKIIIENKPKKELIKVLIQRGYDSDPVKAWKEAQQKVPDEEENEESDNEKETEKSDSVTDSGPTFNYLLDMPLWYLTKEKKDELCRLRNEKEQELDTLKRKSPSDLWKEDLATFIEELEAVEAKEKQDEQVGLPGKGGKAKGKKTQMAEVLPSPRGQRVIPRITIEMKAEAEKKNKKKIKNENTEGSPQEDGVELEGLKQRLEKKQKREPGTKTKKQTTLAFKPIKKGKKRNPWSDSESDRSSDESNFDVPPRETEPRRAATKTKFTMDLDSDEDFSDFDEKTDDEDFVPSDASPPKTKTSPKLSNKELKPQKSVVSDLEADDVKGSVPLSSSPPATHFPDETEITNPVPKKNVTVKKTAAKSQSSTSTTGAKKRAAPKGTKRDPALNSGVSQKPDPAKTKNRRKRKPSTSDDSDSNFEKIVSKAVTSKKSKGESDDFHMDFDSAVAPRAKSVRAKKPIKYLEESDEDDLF
Description: Four concentrations were used and IC50 was calculated.
Compound 3a,b,c,e were evaluated for topoisomerase IIα inhibitory activity utilizing the human DNA topoisomerase ELISA kit (MBS2885049) and following the provided procedure: • Standards and the tested compound were dissolved in sample diluent and tenfold serial dilution was achieved. • Biotin-conjugated antibody and avidin conjugated Horseradish Peroxidase (HRP-avidin) were diluted to tenfolds. • 100 µL of each concentration of standard or test compounds were added to each well and incubated at 37 °C for 1 h. • Removal of the liquid in each well was done. • To each well 100 µL of Biotin-conjugated antibody solution was added followed by incubation for 1 h at 37 °C. • The microtiter plate was allowed to aspirate and washed 3 times. • 100 µL of avidin conjugated Horseradish Peroxidase (HRP-avidin) solution was added to each well and incubatation for 1 h at 37 °C was achieved. • The plate was aspirated and washed 5 times. • Addition of 90 µL of 3,3′,5,5′-tetramethylbenzidine (TMB) substrate to each well followed by plate incubated for 30 min at 37 °C and protection from light was done. • 50 µL stop solution was added.

leukemia SR cells [4] = test: Apoptosis, Annexin-V-FITC/PI; conditions: 3e at 1.90 µM, 24 h

O=C(N/N=C/c1ccc2c(c1)OCO2)c1cn(C2CC2)c2cc(N3CCNCC3)c(F)cc2c1=O [QNT4]
IC50 [1]: 2.96 µM | IC50 (MCF-7 cancer cell lines): 3.71 µM | IC50 (HCT-8 cancer cell lines): 3.69 µM

O=C1NC(=S)NC(=O)C1C(=O)Nc1ccccc1 [Merbarone]
IC50 (Topoisomerase II): 20 µM

CCn1cc(C(=O)O)c(=O)c2cc(F)c(N3CCN(CC(=O)Nc4ccc(S(N)(=O)=O)cc4)C(C)C3)c(F)c21 (stereo not shown) [Compound 5d, 1-Ethyl-6,8-difluoro-7-(3-methyl-4-(2-oxo-2-((4-sulfamoylphenyl)amino)ethyl)piperazin-1-yl)-4-oxo-1,4-dihydroquinoline-3-carboxylic acid]
inhibition at 10 µM (BT-549): 0.7% | inhibition at 10 µM (CAKI-1): 3.88% | inhibition at 10 µM (HS 578T): 0.41% | inhibition at 10 µM (LOX IMVI): 4.12% | inhibition at 10 µM (MCF7): 5.22% | inhibition at 10 µM (MDA-MB-231/ATCC): 0.31% | inhibition at 10 µM (MDA-MB-435): 1.15% | inhibition at 10 µM (NCI-H522): 6.33% | inhibition at 10 µM (NCI/ADR-RES): 0.27% | inhibition at 10 µM (OVCAR-4): 3.58% | inhibition at 10 µM (PC-3): 1.64% | inhibition at 10 µM (SF-539): 0.93% | inhibition at 10 µM (SK-MEL-2): 2.33% | inhibition at 10 µM (SNB-19): 3.07% | inhibition at 10 µM (SNB-75): 11.9% | inhibition at 10 µM (SW-620): 0.37% | inhibition at 10 µM (UACC-62): 9.32% | inhibition at 10 µM (UO-31): 12.9% | activity at 10 µM [2]: 103% | melting point: 228 to 230 °C

COc1cccc2c1C(=O)c1c(O)c3c(c(O)c1C2=O)C[C@@](O)(C(=O)CO)C[C@@H]3O[C@H]1C[C@H](N)[C@H](O)[C@H](C)O1 [Doxorubicin, reference compound]
increase of cells at pre-G1 phase vs control (leukemia SR cells [3]): 8.62 folds | %G0-G1 (leukemia SR cells [3]; 3e at 1.90 µM, 24 h): 25.18% | %G2-M (leukemia SR cells [3]; 3e at 1.90 µM, 24 h): 46.06% | %Pre-G1 (leukemia SR cells [3]; 3e at 1.90 µM, 24 h): 22.17% | %S (leukemia SR cells [3]; 3e at 1.90 µM, 24 h): 28.76% | IC50 (topoisomerase IIα): 0.61 µM | Apoptosis %Early (leukemia SR cells [4]): 5.88% | Apoptosis %Late (leukemia SR cells [4]): 12.21% | Apoptosis %Total (leukemia SR cells [4]): 22.17% | Necrosis (leukemia SR cells [4]): 4.08%
